One data set has as its target CYP2C19 (Homo sapiens, UniProt P33261). As to the kind of experiment: Reversible inhibition kinetics (Lineweaver-Burk), CYP2C19 in HLMs. Type of data set: in vitro ADME. Set-up: 0.20 mg/mL HLMs; from tissue; host or cells: human liver microsomes. To be noted: mephenytoin. How it is done: (§1) The components of the incubation system were as follows: 0.20 mg/mL HLMs or 0.20 mg/mL RLMs, 0.1 M Tris-HCl, vortioxetine, and the probe substrates of each enzyme. In the study of Km’s (Michaelis–Menten constant) experiment, midazolam (1, 2, 5, 10, 20, 50 and 100 μM in HLMs and RLMs) corresponded to CYP3A4/3A; bupropion (10, 20, 50, 100, 200, 500, 1,000 and 2000 μM in HLMs; 1, 2, 5, 10, 20, 50, 100 and 200 μM in RLMs) corresponded to CYP2B6/2B; amodiaquine (5, 10, 20, 50, 100 and 200 μM in HLMs; 10, 20, 50, 100, 200, 500 μM in RLMs) corresponded to CYP2C8/CYP2C-1; losartan (1, 2, 5, 10, 20, 50, 100, 200 μM in HLMs; 10, 20, 50, 100, 200, 500 and 1,000 μM in RLMs) corresponded to CYP2C9/CYP2C-2; mephenytoin (20, 50, 100, 200, 500 and 1,000 μM in HLMs; 5, 10, 20, 50, 100, 200, 500 and 1,000 μM in RLMs) corresponded to CYP2C19/CYP2C-3; and dextromethorphan (1, 2, 5, 10, 20, 50 and 100 μM in HLMs and RLMs) corresponded to CYP2D6/CYP2D. […]
(§2) All experiments results were detected by UPLC-MS/MS, which equipped with a Waters Acquity UPLC system (Milford, MA, United States) and a Waters Xevo TQ-S triple quadrupole tandem mass spectrometer with an electrospray ionization source (Milford, MA, United States). […]
(§3) IC50 values and enzyme kinetic parameters were calculated by Graphpad Prism 6.0 (GraphPad software Inc., CA, United States). […] Data for each experiment were expressed as mean ± SD (n = 3).

The subject of another data set is CYP3A. As to the kind of experiment: Reversible inhibition kinetics (Lineweaver-Burk), CYP3A in RLMs. Type of data set: in vitro ADME, rat. The procedure:
as §1, §2, §3

Another data set relates to CYP2C-1. As to the kind of experiment: IC50-shift experiment, CYP2C-1 in RLMs. Type of data set: in vitro ADME, rat.
Another data set concerns CYP2B. As to the kind of experiment: Reversible inhibition kinetics (Lineweaver-Burk), CYP2B in RLMs. Type of data set: in vitro ADME, rat. How it is done: as §1, §2, §3
A further data set has as its target CYP2D6 (Homo sapiens, UniProt P10635). As to the kind of experiment: Reversible inhibition kinetics (Lineweaver-Burk), CYP2D6 in HLMs. Type of data set: in vitro ADME. Further details: 0.20 mg/mL HLMs; from tissue; host or cells: human liver microsomes. Conditions: dextromethorphan. How it is done: as §1, §2, §3
Another data set concerns CYP2D. As to the kind of experiment: IC50 of vortioxetine on CYP2D (dextromethorphan) in RLMs. Conditions: rat, rat liver microsomes, probe dextromethorphan. Type of data set: in vitro ADME. How it is done:
as §1, §2, §3

SMILES strings stand for the structures. Entries after “also recorded” stand apart in the source; their conditions may differ. Like-named read-outs stand apart in the source and are kept apart here.

The values below come from article PMC10544575, “Inhibitory mechanism of vortioxetine on CYP450 enzymes in human and rat liver microsomes” (Frontiers in Pharmacology, 2023).

Chain of CYP2D6 (P10635 whole entry): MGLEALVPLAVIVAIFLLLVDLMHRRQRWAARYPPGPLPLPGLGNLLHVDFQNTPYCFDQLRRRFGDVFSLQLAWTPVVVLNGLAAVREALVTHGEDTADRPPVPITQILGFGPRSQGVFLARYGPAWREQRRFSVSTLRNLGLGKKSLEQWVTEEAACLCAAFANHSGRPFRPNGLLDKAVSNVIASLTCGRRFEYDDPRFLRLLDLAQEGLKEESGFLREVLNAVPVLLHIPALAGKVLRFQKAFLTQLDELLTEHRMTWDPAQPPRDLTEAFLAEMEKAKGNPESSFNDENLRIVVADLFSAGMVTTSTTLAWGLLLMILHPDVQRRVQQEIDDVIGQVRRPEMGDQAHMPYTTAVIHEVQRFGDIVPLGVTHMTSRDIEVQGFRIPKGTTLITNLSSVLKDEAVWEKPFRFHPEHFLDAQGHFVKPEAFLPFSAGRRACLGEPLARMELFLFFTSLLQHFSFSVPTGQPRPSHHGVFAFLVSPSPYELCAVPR
Chain of CYP2C19 (P33261 whole entry): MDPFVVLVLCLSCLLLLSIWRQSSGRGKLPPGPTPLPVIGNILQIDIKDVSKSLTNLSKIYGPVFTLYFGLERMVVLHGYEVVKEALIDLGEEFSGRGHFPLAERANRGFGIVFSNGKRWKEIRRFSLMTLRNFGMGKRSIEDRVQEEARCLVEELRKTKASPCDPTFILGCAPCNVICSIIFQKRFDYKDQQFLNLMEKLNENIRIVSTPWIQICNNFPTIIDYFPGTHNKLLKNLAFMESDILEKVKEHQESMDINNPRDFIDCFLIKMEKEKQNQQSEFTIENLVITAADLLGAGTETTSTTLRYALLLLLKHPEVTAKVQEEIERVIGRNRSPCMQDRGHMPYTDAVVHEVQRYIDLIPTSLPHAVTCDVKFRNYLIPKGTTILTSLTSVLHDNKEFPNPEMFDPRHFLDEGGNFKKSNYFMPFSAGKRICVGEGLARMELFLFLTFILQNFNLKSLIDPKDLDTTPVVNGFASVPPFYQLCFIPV

In the case of `Cc1ccc(Sc2ccccc2N2CCNCC2)c(C)c1` [vortioxetine], the inhibition constant Ki at CYP2C19 was determined as 2.17 µM; on CYP2D6, 9.37 µM. Also, the Inhibition type result on CYP2C19 (Lineweaver-Burk plot) is listed as “competitively inhibited; also recorded: competitive inhibition”; in the data set with CYP3A (midazolam, Lineweaver-Burk plot), “uncompetitive inhibition”; with CYP2B (bupropion, Lineweaver-Burk plot), “competitive inhibition”; on CYP2D6 (Lineweaver-Burk plot) it was “competitively inhibited; also recorded: competitive inhibition”. In addition, the Ki at 30 min stood at 4.41 µM with CYP3A (rat, rat liver microsomes, probe midazolam) and 2.87 µM in the data set on CYP2B (rat, rat liver microsomes, probe bupropion). For the same molecule, the IC50 with CYP2C-1 (30 min preincubation without NADPH, amodiaquine 20 μM) was 19.8 µM. For the same molecule, the IC50 at 30 min in the data set with CYP2C-1 (rat, rat liver microsomes, probe amodiaquine, 30 min preincubation without NADPH, amodiaquine 20 μM) was 18.3 µM; with CYP2D (RLMs 0.20 mg/mL, dextromethorphan at Km, 37°C, 30 min, read-out: IC50) it was 15.7 µM; in the data set on CYP2D (inhibitory effect (strength judged by IC50), RLMs) it was greater than 10 µM. In the data set on CYP2C-1 (rat, rat liver microsomes, probe amodiaquine, ratio IC50 (−) NADPH to IC50 (+) NADPH, read-out: IC50 fold shift), the IC50 shift at 30 min came to 1.98.
